Here are results for eleven sequences from patent publication US8029764B2, “Methods for detection of colorectal cancer” (The Johns Hopkins University, priority 2001, dated 2011).

The subject of this data set is colorectal tissue transcripts. The data set can be described thus: SAGE of normal, adenoma and cancer colorectal tissue (transcript tag counts). The following applies: for AD1 (SAGE tag count): adenoma library 1; for AD2 (SAGE tag count): adenoma library 2; for CA1 (SAGE tag count): cancer library 1; for CA2 (SAGE tag count): cancer library 2; for NC1 (SAGE tag count): normal colorectal tissue library 1; for NC2 (SAGE tag count): normal colorectal tissue library 2. More on the design: species or system human. Put shortly: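 Tag counts reflect transcript abundance, each mRNA represented by a 15-base tag near its 3′ end. Excluding MHC tags, linkers and duplicate ditags, libraries were compared statistically: two each of normal epithelium, FAP-derived adenomas (>70% neoplastic) and carcinomas.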

Take “TTCCGCGTTC (chemistry not fully specified)”: the “AD1 (SAGE tag count)” value stood at 0, the “AD2 (SAGE tag count)” value amounted to 0, the “CA1 (SAGE tag count)” value is recorded as 2 and the “CA2 (SAGE tag count)” value was found to be 2. Further, the “NC1 (SAGE tag count)” value came out at 5 and the “NC2 (SAGE tag count)” value stood at 16.
Consider “TTCTGGTGCG (chemistry not fully specified)”, for which the “AD1 (SAGE tag count)” value stood at 0, the “AD2 (SAGE tag count)” value is recorded as 0, the “CA1 (SAGE tag count)” value stood at 1 and the “CA2 (SAGE tag count)” value turned out to be 0. In addition, the “NC1 (SAGE tag count)” value came out at 8 and the “NC2 (SAGE tag count)” value is on record as 2.
Turning to “TTCTGTAGCC (chemistry not fully specified)”, the “AD1 (SAGE tag count)” value is reported as 4, the “AD2 (SAGE tag count)” value is listed as 2, the “CA1 (SAGE tag count)” value is recorded as 4 and the “CA2 (SAGE tag count)” value amounted to 2. The “NC1 (SAGE tag count)” value came out at 13 and the “NC2 (SAGE tag count)” value stood at 23.
Consider “TTGGACCTGG (chemistry not fully specified)”, for which the “AD1 (SAGE tag count)” value came out at 7, the “AD2 (SAGE tag count)” value is recorded as 18, the “CA1 (SAGE tag count)” value turned out to be 12 and the “CA2 (SAGE tag count)” value turned out to be 16. Further, the “NC1 (SAGE tag count)” value is reported as 33 and the “NC2 (SAGE tag count)” value came to 31.
Regarding “TTGGGGTTTC (chemistry not fully specified)”, the “AD1 (SAGE tag count)” value came to 50, the “AD2 (SAGE tag count)” value is 81, the “CA1 (SAGE tag count)” value amounted to 67 and the “CA2 (SAGE tag count)” value turned out to be 50. For the same sequence, the “NC1 (SAGE tag count)” value is listed as 111 and the “NC2 (SAGE tag count)” value is reported as 184.
With “TTTAACGGCC (chemistry not fully specified)”, the “AD1 (SAGE tag count)” value is recorded as 36, the “AD2 (SAGE tag count)” value is 35, the “CA1 (SAGE tag count)” value came out at 11 and the “CA2 (SAGE tag count)” value is given as 30. For the same sequence, the “NC1 (SAGE tag count)” value is recorded as 93 and the “NC2 (SAGE tag count)” value worked out at 67.
On to “TTTCCTCTCA (chemistry not fully specified)”, for which the “AD1 (SAGE tag count)” value is 6, the “AD2 (SAGE tag count)” value worked out at 2, the “CA1 (SAGE tag count)” value worked out at 4 and the “CA2 (SAGE tag count)” value is reported as 3. Also, the “NC1 (SAGE tag count)” value came to 21 and the “NC2 (SAGE tag count)” value is reported as 8.
With “TTTCTCGTCG (chemistry not fully specified)”, the “AD1 (SAGE tag count)” value came to 2, the “AD2 (SAGE tag count)” value was determined as 3, the “CA1 (SAGE tag count)” value is reported as 0 and the “CA2 (SAGE tag count)” value stood at 2. Moreover, the “NC1 (SAGE tag count)” value is reported as 10 and the “NC2 (SAGE tag count)” value is 16.
In the case of “TTTGGTTTCA (chemistry not fully specified)”, the “AD1 (SAGE tag count)” value was determined as 0, the “AD2 (SAGE tag count)” value is 0, the “CA1 (SAGE tag count)” value is 0 and the “CA2 (SAGE tag count)” value was 0. The “NC1 (SAGE tag count)” value came out at 2 and the “NC2 (SAGE tag count)” value is listed as 13.
Turning to “TTTTCTGCAT (chemistry not fully specified)”, the “AD1 (SAGE tag count)” value is recorded as 1, the “AD2 (SAGE tag count)” value worked out at 0, the “CA1 (SAGE tag count)” value was 1 and the “CA2 (SAGE tag count)” value was 2. The “NC1 (SAGE tag count)” value stood at 8 and the “NC2 (SAGE tag count)” value stood at 7.
As to “TTTTTACTGA (chemistry not fully specified)”, the “AD1 (SAGE tag count)” value came to 10, the “AD2 (SAGE tag count)” value is on record as 10, the “CA1 (SAGE tag count)” value was determined as 8 and the “CA2 (SAGE tag count)” value was 1. Moreover, the “NC1 (SAGE tag count)” value came out at 32 and the “NC2 (SAGE tag count)” value is 19.
